Reference: PubChem BioAssay AID276 (DTP/NCI, 2004)
Where “and” joins values, the source holds several entries; their conditions need not be identical. Identical values can stand only once. Toxic doses and inconclusive results are not listed. The calls were made as follows: active = survival T/C of 150% or more; inactive = T/C below 125% in these data.

Test system: B6C3F1 mice, Lewis lung carcinoma iv, survival T/C
Experiment: NCI In Vivo Anticancer Drug Screen. Data for tumor model Lewis Lung Carcinoma (intravenous) in B6C3F1 mice
Settings: endpoint: median survival time, schedule: Q01DX009 (ip), higher = longer survival
In short: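 T/C ratio derived from survival of compound-treated versus vehicle-treated mice bearing transplantable tumors.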

[1] = dose: 25.0 mg/kg/injection, vehicle: DMSO
[2] = dose: 25.0 mg/kg/injection, vehicle: saline with Tween-80
[3] = dose: 50.0 mg/kg/injection, vehicle: saline with Tween-80
[4] = dose: 100.0 mg/kg/injection, vehicle: saline with Tween-80
[5] = dose: 6.25 mg/kg/injection, vehicle: water
[6] = dose: 12.5 mg/kg/injection, vehicle: water
[7] = dose: 25.0 mg/kg/injection, vehicle: water
[8] = dose: 12.5 mg/kg/injection, vehicle: saline with Tween-80
[9] = dose: 200.0 mg/kg/injection, vehicle: saline with Tween-80
[10] = dose: 12.5 mg/kg/injection, vehicle: Klucel (hydroxypropylcellulose) (HPC)
[11] = dose: 25.0 mg/kg/injection, vehicle: Klucel (hydroxypropylcellulose) (HPC)
[12] = dose: 50.0 mg/kg/injection, vehicle: Klucel (hydroxypropylcellulose) (HPC)
[13] = dose: 100.0 mg/kg/injection, vehicle: Klucel (hydroxypropylcellulose) (HPC)

Measured: T/C

O=C(O)[C@H](Cc1ccccc1)N1C(=O)c2ccccc2C1=O
inactive: dose: 3.12 mg/kg/injection, vehicle: DMSO 102 % of control | dose: 6.25 mg/kg/injection, vehicle: DMSO 105 % of control | dose: 12.5 mg/kg/injection, vehicle: DMSO 105 % of control | [1] 100 % of control | dose: 50.0 mg/kg/injection, vehicle: DMSO 98 % of control

CC1(C)CC2(C)OC2C2(C1)N=NC(=Nc1ccccc1)O2 (stereo unspecified)
inactive: [2] 97 % of control | [3] 100 % of control | [4] 106 % of control

[N-]=[N+]=CC(=O)CCC(=O)C=[N+]=[N-]
inactive: dose: 0.39 mg/kg/injection, vehicle: DMSO 92 % of control | dose: 0.78 mg/kg/injection, vehicle: DMSO 95 % of control | dose: 1.5 mg/kg/injection, vehicle: DMSO 121 % of control | dose: 3.0 mg/kg/injection, vehicle: DMSO 112 % of control | dose: 6.0 mg/kg/injection, vehicle: DMSO 115 % of control | [1] 108 % of control

CN(C)CCN1C(=O)c2cccc3cc(N)cc(c23)C1=O
inactive: dose: 1.0 mg/kg/injection, vehicle: saline with Tween-80 115 % of control | dose: 2.0 mg/kg/injection, vehicle: saline with Tween-80 106 % of control | dose: 4.0 mg/kg/injection, vehicle: saline with Tween-80 111 % of control | dose: 8.0 mg/kg/injection, vehicle: saline with Tween-80 119 % of control

O=NN(CCCl)C(=O)Oc1ccc(OC(=O)N(CCCl)N=O)cc1
inactive: dose: 0.5 mg/kg/injection, vehicle: Klucel (hydroxypropylcellulose) (HPC) 95 % of control | dose: 1.0 mg/kg/injection, vehicle: Klucel (hydroxypropylcellulose) (HPC) 96 % of control | dose: 2.0 mg/kg/injection, vehicle: Klucel (hydroxypropylcellulose) (HPC) 105 % of control | dose: 3.12 mg/kg/injection, vehicle: Klucel (hydroxypropylcellulose) (HPC) 97 % of control | dose: 4.0 mg/kg/injection, vehicle: Klucel (hydroxypropylcellulose) (HPC) 111 % of control

CC(=O)NC(C=O)OCC=O (stereo unspecified)
inactive: [5] 111 % of control | [6] 104 % of control | [7] 97 % of control | dose: 50.0 mg/kg/injection, vehicle: water 97 % of control | dose: 100.0 mg/kg/injection, vehicle: water 91 % of control | dose: 200.0 mg/kg/injection, vehicle: water 103 % of control

NC(=S)N/N=C/c1ccc(OC(=O)COc2ccc(Cl)cc2)cn1
inactive: [8] 99 % of control and 100 % of control | [2] 92 % of control and 99 % of control | [3] 95 % of control and 101 % of control | [4] 92 % of control and 107 % of control | [9] 116 % of control

CC1=C(C)C(=O)O[C@@H]([C@](C)(O)[C@]2(O)CC[C@@]3(O)[C@@H]4C[C@H]5O[C@]56[C@@H](O)C=CC(=O)[C@]6(C)[C@H]4CC[C@]23C)C1
inactive: dose: 1.0 mg/kg/injection, vehicle: saline 97 % of control | dose: 2.0 mg/kg/injection, vehicle: saline 100 % of control and 101 % of control | dose: 4.0 mg/kg/injection, vehicle: saline 101 % of control and 104 % of control | dose: 8.0 mg/kg/injection, vehicle: saline 94 % of control and 101 % of control | dose: 16.0 mg/kg/injection, vehicle: saline 94 % of control | dose: 32.0 mg/kg/injection, vehicle: saline 92 % of control

CC(C)[C@]12O[C@H]1[C@@H]1O[C@]13[C@]1(O[C@H]1C[C@H]1C4=C(C(=O)OC4)[C@@H](O)C[C@@]13C)[C@@H]2O
inactive: dose: 25.0 micrograms/kg/injection, vehicle: saline + alcohol 98 % of control | dose: 50.0 micrograms/kg/injection, vehicle: saline + alcohol 110 % of control | dose: 100.0 micrograms/kg/injection, vehicle: saline + alcohol 102 % of control | dose: 200.0 micrograms/kg/injection, vehicle: saline + alcohol 88 % of control | dose: 400.0 micrograms/kg/injection, vehicle: saline + alcohol 107 % of control

CN=S(=O)(OCCCCCOS(=O)(=NC)c1ccc(C)cc1)c1ccc(C)cc1 (stereo unspecified)
inactive: dose: 6.25 mg/kg/injection, vehicle: saline with Tween-80 99 % of control | [8] 99 % of control | [2] 91 % of control | [3] 94 % of control | [4] 92 % of control | [9] 96 % of control

NC(=S)c1cn(C2OC(CO)C(O)C2O)c2ncnc(N)c12 (stereo unspecified)
inactive: dose: 0.62 mg/kg/injection, vehicle: suspension in saline 100 % of control | dose: 1.25 mg/kg/injection, vehicle: suspension in saline 90 % of control | dose: 2.5 mg/kg/injection, vehicle: suspension in saline 99 % of control | dose: 5.0 mg/kg/injection, vehicle: suspension in saline 94 % of control

CC(C)=CC(=O)OC1C2C(C)=CC(=O)C(O)C2(C)C2C3(O)OCC24C(CC(=O)OC14)C(C)C3O (stereo unspecified)
inactive: dose: 0.25 mg/kg/injection, vehicle: distilled water + Tween-80 107 % of control | dose: 0.5 mg/kg/injection, vehicle: distilled water + Tween-80 98 % of control | dose: 1.0 mg/kg/injection, vehicle: distilled water + Tween-80 102 % of control | dose: 2.0 mg/kg/injection, vehicle: distilled water + Tween-80 98 % of control

Cc1cc(N2C(=O)CCSC2=S)ccc1Cl
inactive: [10] 120 % of control | [11] 97 % of control | [12] 102 % of control | [13] 111 % of control | dose: 200.0 mg/kg/injection, vehicle: Klucel (hydroxypropylcellulose) (HPC) 124 % of control

Nc1nncs1
inactive: dose: 15.19 mg/kg/injection, vehicle: Klucel (hydroxypropylcellulose) (HPC) 106 % of control | dose: 20.25 mg/kg/injection, vehicle: Klucel (hydroxypropylcellulose) (HPC) 100 % of control | dose: 27.0 mg/kg/injection, vehicle: Klucel (hydroxypropylcellulose) (HPC) 113 % of control | dose: 36.0 mg/kg/injection, vehicle: Klucel (hydroxypropylcellulose) (HPC) 103 % of control and 116 % of control | dose: 48.0 mg/kg/injection, vehicle: Klucel (hydroxypropylcellulose) (HPC) 103 % of control

COc1cccc2c1C(=O)c1c(O)c3c(c(O)c1C2=O)C[C@@](O)(/C(C)=N\O)C[C@@H]3OC1CC(N)C(O)C(C)O1 (stereo partly specified)
inactive: dose: 3.12 mg/kg/injection, vehicle: water 90 % of control | [5] 86 % of control | [6] 90 % of control

Nc1n[n+](-c2ccccc2)no1
inactive: dose: 3.13 mg/kg/injection, vehicle: water 108 % of control | [5] 100 % of control | [6] 113 % of control | [7] 114 % of control

CCOC(=O)c1cn(C)c2c1C(O)=C(C(=O)OC)CC(=O)N2
inactive: [2] 97 % of control | [3] 104 % of control | [4] 113 % of control | [9] 99 % of control | dose: 400.0 mg/kg/injection, vehicle: saline with Tween-80 105 % of control

CCc1ccccc1N1CCN(C(=O)c2cc(OC)c(OC)c(OC)c2)CC1
inactive: dose: 6.25 mg/kg/injection, vehicle: Klucel (hydroxypropylcellulose) (HPC) 106 % of control | [10] 103 % of control | [11] 110 % of control | [12] 110 % of control | [13] 105 % of control
